Data on one substance can be found in PMC10690437 (Nature immunology, 2023).

This test deals with HLA-E. In words: HLA-E expression on PBMCs after IFNγ treatment. It counts as cell-based, human. To be noted: PBMCs cultured with 5 ng ml^−1 IFNγ for 2 days; 3D12 flow cytometry. Background: A flow cytometer gives signals particle by particle.

In the case of “IFNγ: interferon-γ (BioLegend, PeproTech)”, the “HLA-E surface expression on peripheral blood cells” value is given as “increase in HLA-E surface expression”.
